# Entries after “also recorded” stand apart in the source; their conditions may differ.
# Assays:
# Assay type in all cases: in vivo, mouse
# Str/ort mice [1] = experiment: Histology and grading of articular cartilage lesions in Str/ort mice
# Protocol: At 10-13 weeks of age, 21 male Str/ort mice (n=7/group) were assigned randomly to vehicle, hylin-betaine and xantho-betaine groups and were treated intraperitoneally 18 weeks with either vehicle (5% DMSO in 95% peanut oil), 50 mg/kg compound of Example 1 (“hylin-betaine”) in 5% DMSO and 95% peanut oil or 50 mg/kg compound of Example 2 (“xantho-betaine”) in 5% DMSO and 95% peanut oil. Dissected right knees were fixed in neutral buffered formalin, decalcified (Immunocal, Quartett, Berlin), wax-embedded and 6 μm coronal sections cut. Multiple sections (five/slide) from 120 μm intervals across the whole joint were stained with Tollidine blue (0.1% in 0.1 M acetate buffer, pH 5.6) and AC lesion severity graded. Sections from right vehicle, hylin-betaine and xantho-betaine treated Str/ort joints were stained with Safranin O. Sections were dewaxed, and AC lesion severity was scored in Str/ort mice by the methods of Chambers et al., (Chambers et al Expression of collagen and aggrecan genes in normal and osteoarthritic murine knee joints. Osteoarthritis and cartilage/OARS, Osteoarthritis Research Society. 2002; 10(1):51-61) consistent with an internationally-recognized system. Briefly, grade 0: normal; grade 1: rough surface or superficial zone lesions; grade 2: lesion down to the intermediate zone; grade 3: lesions down to tidemark or loss of AC; grades 4 and 5: AC loss across between 20% and 50% or 50-80% of condylar surface; grade 6: loss with subchondral bone exposure. Multiple slides (˜10), each containing five 6 μm sections sampled at 120 μm intervals spanning each entire joint were graded. Grading in each joint compartment (lateral/medial, tibia/femur) allowed for a maximum (most severe) grade to be assigned in each section, and used to produce an overall ‘average’ maximum grade in each group of mice, for the entire joint and for each compartment. In addition, a mean score was produced for each joint and for each compartment and these similarly used to produce an overall ‘average’ mean grade in each group of mice. Mean grades provide a measure of the ‘extent’ of AC lesion (representing relative volume) in each joint/compartment.
# Str/ort mice [2] = experiment: Gait analysis (treadmill, Digigait) in Str/ort mice
# Protocol: (§1) At 10-13 weeks of age, 21 male Str/ort mice (n=7/group) were assigned randomly to vehicle, hylin-betaine and xantho-betaine groups and were treated intraperitoneally 18 weeks with either vehicle (5% DMSO in 95% peanut oil), 50 mg/kg compound of Example 1 (“hylin-betaine”) in 5% DMSO and 95% peanut oil or 50 mg/kg compound of Example 2 (“xantho-betaine”) in 5% DMSO and 95% peanut oil.
# Gait was monitored using a treadmill-based video system (DigigaitTM system) in three treatment groups of mice at three time point, week 1, week 9 and week 18 of treatment. The number of mice was 7, 7 and 5 in groups 1, 2 and 3, respectively.
# […] gait descriptors were used for the analyses. Thirty-four descriptors were obtained directly from the software of the system in the 4 limbs (LF: left front; RF: right front; LR: left rear; RR: right rear). All the others (143) were calculated indexes from gait measurements including swing, stance, brake, propel and stride times, stride length, frequency and coefficient of variation, paw area and paw angle and the variability of those two traits, the coefficient of variation of swing duration mid line distance, and minimum and maximum dAdT. The ratios of times were calculated in the 4 limbs: Brake, Propel, and Swing times relative to Stance and Stride times, Stance/Swing and Stance/Stride. In addition, the following additional indexes were considered:
# In order to investigate whether there were differences among groups for each descriptor at the three experimental dates, an ANOVA was performed using data corresponding to each descriptor and date. Bonferroni correction was applied to counteract the problem of multiple comparisons.
# A t-test analysis was also performed comparing only two groups at a time. In order to assess whether differences between both groups could be due to differences in gait change regarding the initial condition (at 2014/12/23), two sets of analyses were performed for data at 2015/02/18 and 2015/04/14, respectively by using Logistic Regression Analysis. The model included two independent variables: the initial value for each descriptor and the difference between the corresponding value at 2015/02/18 (or 2015/04/14) and the initial value. Bonferroni correction was also applied.
# Str/ort mice [3] = experiment: Micro-CT of tibial trabecular and cortical bone in Str/ort mice; conditions: 10-90% of total tibial length, vs vehicle
# Str/ort mice [4] = experiment: Health evaluation of treated Str/ort mice; conditions: 50 mg/kg intraperitoneally, 18 weeks, vs vehicle
# Protocol: as §1
# To assess the health status after hylin-betaine and xantho-betaine treatment, mice were monitored for their health status. The monitoring criteria were body surface temperature, body weight, gait, coat condition, skin tenting for dehydration, hunching, activity, breathing rate and general body condition. Mice were scored blind for each one of these criteria from 1-5 except for body weight and temperature.
# Str/ort mice [5] = experiment: Micro-CT of tibial trabecular and cortical bone in Str/ort mice
# Protocol: At 10-13 weeks of age, 21 male Str/ort mice (n=7/group) were assigned randomly to vehicle, hylin-betaine and xantho-betaine groups and were treated intraperitoneally 18 weeks with either vehicle (5% DMSO in 95% peanut oil), 50 mg/kg compound of Example 1 (“hylin-betaine”) in 5% DMSO and 95% peanut oil or 50 mg/kg compound of Example 2 (“xantho-betaine”) in 5% DMSO and 95% peanut oil. Micro-CT scanning and analysis were performed as described previously. Briefly, tibiae from vehicle, hylin-betaine and xantho-betaine treated groups were scanned using the Skyscan 1172 (Skyscan, Kontich, Belgium), with x-ray tube operated at 50 kV and 200 Micro-A, 1600 ms exposure time with a 0.5 mm aluminium filter and a voxel size of micro-m 5. The scanning time for each sample was approximately 2 hours. The slices were then reconstructed using NRecon 1.6.9.4 (Skyscan, Kontich, Belgium). 2D/3D analyses were performed using CTAn 1.15.4.0+ version software (Skyscan, Kontich, Belgium). Additionally, 3D visualization and production of colour-coded images of trabecular, cortical and skull bones were conducted using Avizo 9.0.0 software (FEI, Oregon USA). • a. Trabecular analysis: prior to analysis, Micro-CT images were re-oriented in DataViewer 1.5.0 (Skyscan, Kontich, Belgium), such that the cross-section within the transverse plane was perpendicular to the long axis of the bone. Tibial length was measured in CTAn 1.15.4.0+ software using a straight line measuring tool and the appearance of the trabecular ‘bridge’ connecting the two primary spongiosa bone ‘islands’ was set as reference point for analysis of the metaphyseal trabecular bone adjacent to the epiphyseal growth plate. 5% of the total bone length from this point (towards the diaphysis) was utilised for trabecular analysis of the proximal tibia. The trabecular region of interest was drawn freehand using the selection tool of CTAn, a few voxels away from the endocortical surfaces in order to avoid inclusion of remnants of primary spongiosa associated with cortical bone. The selected trabecular regions of interests were analysed using CTAn BatMan software (Skyscan, Kontich, Belgium) and morphometric parameters were recorded. • b. Whole bone cortical analysis: Whole bone analysis was performed on datasets derived from CT scans using BoneJ (version 1.4.0), an ImageJ plugin. Following segmentation, alignment and removal of fibula from the dataset, a minimum bone threshold was selected using a histogram based method in ImageJ which utilises all pixels in a stack to construct a histogram and was further confirmed using ImageJ “threshold function”. The threshold ranged between 22000-22100 and was applied to all datasets to separate higher density bone from soft tissues and air. This threshold was used in “Slice Geometry” function within BoneJ to calculate bone cross sectional area (CSA), second moment of area around the minor axis (Imin), second moment of area around the major axis (Imax), mean thickness determined by local thickness in two dimensions (Ct.Th), ellipticity and resistance to torsion (J). The most proximal (15%) and the most distal portions (25%) of tibial length were excluded from analysis, as these regions include trabecular bone.
# [6] = 50 mg/kg intraperitoneally, 18 weeks, vs vehicle
# [7] = 50 mg/kg intraperitoneally, 18 weeks
smiles,measurement,setting,value
"COc1cc(/C=C/C(=O)/C=C/c2ccc(OC(=O)C[N+](C)(C)C)c(OC)c2)ccc1O.[Cl-] [Hylin-betaine, 2-(4-((1E,4E)-5-(4-hydroxy-3-methoxyphenyl)-3-oxopenta-1,4-dien-1-yl)-2-methoxyphenoxy)-N,N,N-trimethyl-2-oxoethanaminium chloride]",effect on articular cartilage lesions / development of OA (overall),Str/ort mice [1]; [6],prevents/improves articular cartilage lesions; also recorded: protective effect
same,Mean OA scores,"Str/ort mice [1]; tibial and femoral lateral knee joint compartments, vs vehicle",statistically significantly lower
same,maximum OA score,Str/ort mice [1]; vs vehicle treated Str/ort mice,trend for lower maximum score
same,mice that refused to run (drop-out) during the gait studies,Str/ort mice [2]; [7],no mice
same,percentage of drop-out regarding the total number of runs,Str/ort mice [2]; [7],0%
same,distribution of gait data (runs) by treatment group,Str/ort mice [2]; 2014 Dec. 23,7
same,distribution of gait data (runs) by treatment group,Str/ort mice [2]; 2015 Apr. 14,7
same,distribution of gait data (runs) by treatment group,Str/ort mice [2]; 2015 Feb. 18,7
same,effect on all gait descriptors,"Str/ort mice [2]; any time point, compared with vehicle group",no significant effect
same,effect on cortical bone (overall),Str/ort mice [3],significantly alter
same,"health status: weight, hunching, gait, activity, vocalisation and respiration scores, coat condition",Str/ort mice [4],does not alter
same,"metaphyseal trabecular bone architecture and mass (tibial length, BV/TV, TV, BV, eccentricity, thickness, separation, number)",Str/ort mice [5]; [6],do not alter
same,cortical cross-sectional area (CSA),Str/ort mice [5]; apart from one distal region and a region close to tibio-fibula junction,do not significantly
same,mean cortical cross-sectional thickness,"Str/ort mice [5]; multiple regions from −15-60% tibial length, vs vehicle",significantly enhanced
same,second moment of area around minor axis (Imin),"Str/ort mice [5]; vs vehicle, one region proximally",does not affect
same,tibial ellipticity,"Str/ort mice [5]; vs vehicle, region ˜40-50% along the tibia",modified by xantho-betaine but not hylin-betaine
same,second moment of area around major axis (Imax),"Str/ort mice [5]; vs vehicle, ˜35-55% of tibial length",did not affect

# Source: patent publication US20250017888A1, “COMPOUNDS FOR TREATING DISEASES ASSOCIATED WITH HYALURONAN OVERPRODUCTION” (THE ROYAL VETERINARY COLLEGE, priority 2021, published 2025)
